Assay results as given in PMC7002245 (European journal of medicinal chemistry, 2019).
Like-named read-outs stand apart in the source and are kept apart here.

Assays:
rhinovirus B5 = type: cell-based; details: HeLa cells, CPE inhibition, 72 h post infection; n/a = not active (max 100 μM)
coxsackievirus B3 Nancy = type: cell-based; details: HeLa cells, CPE inhibition, 48 h post infection; n/a = not active (max 100 μM)
[1] = system: coxsackievirus B3 97927 I1207K I1092; type: cell-based
E. coli PQ37 = test: microbe, parasite or virus in culture; type: cell-based; details: Escherichia coli
[2] = Pharmacokinetic study in mice after intragastric administration; type: in vivo
CYP3A4 = details: human, hepatocytes
rhinovirus B14 = type: cell-based; details: HeLa cells, CPE inhibition, 72 h post infection; n/a = not active (max 100 μM)

Q: For `COC(=O)c1cc(CCCOc2c(C)cc(-c3noc(C(F)(F)F)n3)cc2C)on1` [6a, 3-(3,5-Dimethyl-4-(3-(3-carbmethoxy-isoxazol-5-yl)propoxy)phenyl)-5-trifluoromethyl-1,2,4-oxadiazole], which “IC50 towards rhinovirus B5” value (rhinovirus B5) is on record?
A: no activity

Q: For `CCOC(=O)c1cc(CCCOc2ccc(-c3noc(C(F)(F)F)n3)cc2)on1` [6c, 3-(4-(3-(3-Carbethoxy-isoxazol-5-yl)propoxy)phenyl)-5-trifluoromethyl-1,2,4-oxadiazole], which “IC50 towards coxsackievirus B3 Nancy” value (coxsackievirus B3 Nancy) is on record?
A: inactive

Q: And the “IC50 towards rhinovirus B5” value (rhinovirus B5)?
A: inactive

Q: What about the “IC50 towards coxsackievirus B3 97927 I1207K I1092” value [1] of the same compound?
A: inactive

Q: Which zone of inhibition at 10000 µg/mL (E. coli PQ37) does the source give for `CNC(=O)c1cc(CCCOc2c(C)cc(-c3noc(C(F)(F)F)n3)cc2C)on1` [10b, 3-(3,5-Dimethyl-4-(3-(3-methylcarbamoyl-isoxazol-5-yl)propoxy)phenyl)-5-trifluoromethyl-1,2,4-oxadiazole] here?
A: 0 mm

Q: Which zone of inhibition at 10000 µg/mL (E. coli PQ37) does the source give for `Cc1cc(-c2noc(C(F)(F)F)n2)cc(C)c1OCCCc1cc(C(=O)N(C)C)no1` [10e, 3-(3,5-Dimethyl-4-(3-(3-N,N-dimethylcarbamoyl-isoxazol-5-yl)propoxy)phenyl)-5-trifluoromethyl-1,2,4-oxadiazole] here?
A: 0 mm

Q: Which zone of inhibition at 10000 µg/mL (E. coli PQ37) does the source give for `Cc1cc(-c2noc(C(F)(F)F)n2)ccc1OCCCc1cc(C(=O)N(C)C)no1` [10g, 3-(3-Methyl-4-(3-(3-N,N-dimethylcarbamoyl-isoxazol-5-yl)propoxy)phenyl)-5-trifluoromethyl-1,2,4-oxadiazole] here?
A: 0 mm

Q: And the bioavailability ([2]; 100 mg/kg intragastric)?
A: very high bioavailability

Q: What about the CL ([2]; 100 mg/kg single dose intragastric, CL = dose/AUC0-∞) of the same compound?
A: 0.66 h⁻¹

Q: What about the “induction of CYP3A4 (fold)” value (CYP3A4; 1 μM) of the same compound?
A: 1.2 x

Q: And the “induction of CYP3A4, % of control” value (CYP3A4; 1 μM)?
A: 3%

Q: What about the “induction of CYP3A4 (fold)” value (CYP3A4; 10 μM) of the same compound?
A: 1.4 x

Q: What about the “induction of CYP3A4, % of control” value (CYP3A4; 10 μM) of the same compound?
A: 7%

Q: Which zone of inhibition at 10000 µg/mL (E. coli PQ37) does the source give for `CN(C)C(=O)c1cc(CCCOc2ccc(-c3noc(C(F)(F)F)n3)cc2[N+](=O)[O-])on1` [10i, 3-(3-Nitro-4-(3-(3-N,N-dimethylcarbamoyl-isoxazol-5-yl)propoxy)phenyl)-5-trifluoromethyl-1,2,4-oxadiazole] here?
A: 0 mm

Q: For `CN(C)C(=O)c1cc(CCCOc2ccc(-c3noc(C(F)(F)F)n3)cc2C(F)(F)F)on1` [10k, 3-(3-Trifluoromethyl-4-(3-(3-N,N-dimethylcarbamoyl-isoxazol-5-yl)propoxy)phenyl)-5-trifluoromethyl-1,2,4-oxadiazole], which zone of inhibition at 10000 µg/mL (E. coli PQ37) is on record?
A: 0 mm

Q: What does the source list for `CNC(=O)c1cc(CCCOc2ccc(-c3noc(C(F)(F)F)n3)cc2C(F)(F)F)on1` [10m, 3-(3-Trifluoromethyl-4-(3-(3-methylcarbamoyl-isoxazol-5-yl)propoxy)phenyl)-5-trifluoromethyl-1,2,4-oxadiazole]?
A: IC50 towards rhinovirus B5 (rhinovirus B5): did not totally inhibit; IC50 towards coxsackievirus B3 97927 I1207K I1092 [1]: no activity; IC50 towards rhinovirus B14 (rhinovirus B14): did not totally inhibit

Q: Which results are given for `Cc1cc(CCCOc2c(C)cc(-c3noc(C(F)(F)F)n3)cc2C)on1` [P, pleconaril, reference compound]?
A: induction of CYP3A4, % of control (CYP3A4; 1 μM): 13%; induction of CYP3A4, % of control (CYP3A4; 10 μM): 30%
